# Laboratory results: PubChem BioAssay AID248 (DTP/NCI, 2004)
# “And” between values parts separate entries of the source, which are not always exact repeats. Identical values can stand only once. Toxic doses and inconclusive results are not listed.
# Tested on: L1210 leukemia ip in BDF1 mice, survival T/C
# Assay: NCI In Vivo Anticancer Drug Screen. Data for tumor model L1210 Leukemia (intraperitoneal) in B6D2F1 (BDF1) mice
# Conditions: endpoint: mean survival time, higher = longer survival
# Method in brief: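 In this screen, tumor-bearing mice given compound are compared to those given vehicle, and their survival values are reported as a treated-to-control quotient.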
# [1] = dose: 50.0 mg/kg/injection, schedule: Q01DX009 (ip), vehicle: saline with Tween-80
# [2] = dose: 100.0 mg/kg/injection, schedule: Q01DX009 (ip), vehicle: saline with Tween-80
# [3] = dose: 200.0 mg/kg/injection, schedule: Q01DX009 (ip), vehicle: saline with Tween-80
# [4] = dose: 100.0 mg/kg/injection, schedule: Q04DX002 (ip), vehicle: saline
# [5] = dose: 200.0 mg/kg/injection, schedule: Q04DX002 (ip), vehicle: saline
# [6] = dose: 400.0 mg/kg/injection, schedule: Q04DX002 (ip), vehicle: saline
# [7] = dose: 50.0 mg/kg/injection, schedule: Q01DX009 (ip), vehicle: saline
# [8] = dose: 100.0 mg/kg/injection, schedule: Q01DX009 (ip), vehicle: saline
# [9] = dose: 200.0 mg/kg/injection, schedule: Q01DX009 (ip), vehicle: saline
# [10] = dose: 100.0 mg/kg/injection, schedule: Q04DX003 (ip), vehicle: Klucel (hydroxypropylcellulose) (HPC)
# [11] = dose: 200.0 mg/kg/injection, schedule: Q04DX003 (ip), vehicle: Klucel (hydroxypropylcellulose) (HPC)
# [12] = dose: 400.0 mg/kg/injection, schedule: Q04DX003 (ip), vehicle: Klucel (hydroxypropylcellulose) (HPC)
# [13] = dose: 100.0 mg/kg/injection, schedule: Q01DX001 (ip), vehicle: carboxymethylcellulose (CMC)
# [14] = dose: 200.0 mg/kg/injection, schedule: Q01DX001 (ip), vehicle: carboxymethylcellulose (CMC)
smiles,measurement,setting,value
CCOC1c2cnc(C)n2C=CN1C(C)=O (configuration not stated),T/C,"dose: 50.0 mg/kg/injection, schedule: Q01DX009 (ip), vehicle: water",96 % of control
same,T/C,"dose: 100.0 mg/kg/injection, schedule: Q01DX009 (ip), vehicle: water",94 % of control
same,T/C,"dose: 100.0 mg/kg/injection, schedule: Q04DX003 (ip), vehicle: water",116 % of control
same,T/C,"dose: 200.0 mg/kg/injection, schedule: Q04DX003 (ip), vehicle: water",115 % of control
NNC(=O)c1cnccn1,T/C,"dose: 16.0 mg/kg/injection, schedule: Q01DX015 (ip), vehicle: water",102 % of control
same,T/C,"dose: 32.0 mg/kg/injection, schedule: Q01DX015 (ip), vehicle: water",115 % of control
same,T/C,"dose: 64.0 mg/kg/injection, schedule: Q01DX015 (ip), vehicle: water",109 % of control
same,T/C,"dose: 80.0 mg/kg/injection, schedule: Q01DX015 (ip), vehicle: water",105 % of control
same,T/C,"dose: 100.0 mg/kg/injection, schedule: Q01DX001 (ip), vehicle: water",96 % of control
same,T/C,"dose: 120.0 mg/kg/injection, schedule: Q01DX015 (ip), vehicle: water",113 % of control
COc1ccc(C(C)(C)CC(=O)O)cc1,T/C,[1],97 % of control
same,T/C,[2],100 % of control
same,T/C,[3],90 % of control
CC(C)(C)c1ccc(N)c([N+](=O)[O-])c1,T/C,[1],102 % of control
same,T/C,[2],87 % of control
same,T/C,[3],102 % of control
COC1c2ccccc2CC1(C)C (configuration not stated),T/C,[4],118 % of control
same,T/C,[5],105 % of control
same,T/C,[6],94 % of control
CC(=O)Nc1ccc(/C=N/NC(=O)c2ccc(C)cc2)cc1,T/C,[1],93 % of control
same,T/C,[3],90 % of control
CCOC(=O)c1c[n]([Hg][n]2cc(C(=O)OCC)c(Nc3ccccc3Cl)nc2=O)c(=O)nc1Nc1ccccc1Cl,T/C,"dose: 3.0 mg/kg/injection, schedule: Q01DX009 (ip), vehicle: saline with Tween-80",96 % of control
same,T/C,"dose: 6.0 mg/kg/injection, schedule: Q01DX009 (ip), vehicle: saline with Tween-80",96 % of control
same,T/C,"dose: 12.0 mg/kg/injection, schedule: Q01DX009 (ip), vehicle: saline with Tween-80",95 % of control
same,T/C,"dose: 12.5 mg/kg/injection, schedule: Q04DX003 (ip), vehicle: saline with Tween-80",100 % of control
C[N+](C)(C)CN1C(=O)c2ccccc2C1=O,T/C,[7],101 % of control
same,T/C,[8],97 % of control
same,T/C,[9],88 % of control
CCOc1ncc([N+](=O)[O-])cc1[N+](=O)[O-],T/C,[10],88 % of control
same,T/C,[11],92 % of control
same,T/C,[12],90 % of control
NC(=O)c1ccccc1NC(=O)Nc1ccc(F)cc1,T/C,[13],104 % of control
same,T/C,"dose: 100.0 mg/kg/injection, schedule: Q01DX009 (ip), vehicle: carboxymethylcellulose (CMC)",102 % of control and 105 % of control
same,T/C,"dose: 100.0 mg/kg/injection, schedule: Q04DX002 (ip), vehicle: carboxymethylcellulose (CMC)",100 % of control and 101 % of control
same,T/C,"dose: 100.0 mg/kg/injection, schedule: Q04DX003 (ip), vehicle: carboxymethylcellulose (CMC)",95 % of control
same,T/C,[14],101 % of control
same,T/C,"dose: 200.0 mg/kg/injection, schedule: Q01DX009 (ip), vehicle: carboxymethylcellulose (CMC)",98 % of control and 105 % of control
same,T/C,"dose: 200.0 mg/kg/injection, schedule: Q04DX002 (ip), vehicle: carboxymethylcellulose (CMC)",101 % of control and 107 % of control
same,T/C,"dose: 200.0 mg/kg/injection, schedule: Q04DX003 (ip), vehicle: carboxymethylcellulose (CMC)",102 % of control
same,T/C,"dose: 400.0 mg/kg/injection, schedule: Q01DX001 (ip), vehicle: carboxymethylcellulose (CMC)",93 % of control
same,T/C,"dose: 400.0 mg/kg/injection, schedule: Q01DX009 (ip), vehicle: carboxymethylcellulose (CMC)",94 % of control and 102 % of control
same,T/C,"dose: 400.0 mg/kg/injection, schedule: Q04DX002 (ip), vehicle: carboxymethylcellulose (CMC)",93 % of control and 96 % of control
same,T/C,"dose: 400.0 mg/kg/injection, schedule: Q04DX003 (ip), vehicle: carboxymethylcellulose (CMC)",91 % of control
O=[N+]([O-])c1ccc(N=Nc2ccc(O)cc2)c([N+](=O)[O-])c1,T/C,"dose: 50.0 mg/kg/injection, schedule: Q01DX001 (ip), vehicle: carboxymethylcellulose (CMC)",100 % of control
same,T/C,[13],106 % of control
same,T/C,[14],105 % of control
COP(=O)(OC)C(O)C(Cl)Cl (configuration not stated),T/C,[4],115 % of control
same,T/C,[5],104 % of control
same,T/C,[6],104 % of control
CC(C)=NNC(=O)c1ccc(Cl)cc1,T/C,[2],95 % of control
same,T/C,[3],106 % of control
same,T/C,"dose: 400.0 mg/kg/injection, schedule: Q01DX009 (ip), vehicle: saline with Tween-80",116 % of control
Cc1ccc(S(=O)(=O)NCCCCCC(=O)OCc2ccccc2)cc1,T/C,[7],97 % of control
same,T/C,[8],94 % of control and 100 % of control
same,T/C,"dose: 100.0 mg/kg/injection, schedule: Q04DX003 (ip), vehicle: saline",108 % of control
same,T/C,[9],96 % of control and 104 % of control
same,T/C,"dose: 200.0 mg/kg/injection, schedule: Q04DX003 (ip), vehicle: saline",101 % of control
same,T/C,"dose: 400.0 mg/kg/injection, schedule: Q01DX009 (ip), vehicle: saline",94 % of control
same,T/C,"dose: 400.0 mg/kg/injection, schedule: Q04DX003 (ip), vehicle: saline",100 % of control
COc1ccc(C2NC(=O)N3C(c4ccc(OC)cc4)NC(=O)N23)cc1 (configuration not stated),T/C,"dose: 100.0 mg/kg/injection, schedule: Q01DX009 (ip), vehicle: gum acacia",105 % of control
same,T/C,"dose: 100.0 mg/kg/injection, schedule: Q04DX003 (ip), vehicle: gum acacia",97 % of control
same,T/C,"dose: 200.0 mg/kg/injection, schedule: Q01DX009 (ip), vehicle: gum acacia",89 % of control
same,T/C,"dose: 400.0 mg/kg/injection, schedule: Q01DX009 (ip), vehicle: gum acacia",93 % of control
same,T/C,"dose: 400.0 mg/kg/injection, schedule: Q04DX003 (ip), vehicle: gum acacia",94 % of control
O=P1(N(CCCl)CCCl)NC(OO)CCO1 (configuration not stated),T/C,"dose: 200.0 mg/kg/injection, schedule: Q01DX001 (ip), vehicle: DMSO",270 % of control
CN1CCC23c4ccccc4NC1C21CCN(C)C3Nc2ccccc21,T/C,"dose: 6.25 mg/kg/injection, schedule: Q01DX Z (ip), vehicle: saline",97 % of control
same,T/C,"dose: 12.5 mg/kg/injection, schedule: Q01DX Z (ip), vehicle: saline",110 % of control
same,T/C,"dose: 25.0 mg/kg/injection, schedule: Q01DX Z (ip), vehicle: saline",100 % of control
same,T/C,"dose: 50.0 mg/kg/injection, schedule: Q01DX Z (ip), vehicle: saline",101 % of control
same,T/C,"dose: 100.0 mg/kg/injection, schedule: Q01DX009 (ip), vehicle: Klucel (hydroxypropylcellulose) (HPC)",107 % of control
same,T/C,"dose: 200.0 mg/kg/injection, schedule: Q01DX009 (ip), vehicle: Klucel (hydroxypropylcellulose) (HPC)",96 % of control
CCN(CC)Cc1cc(C(=N)N)ccc1O,T/C,"dose: 56.0 mg/kg/injection, schedule: Q01DX Z (ip), vehicle: carboxymethylcellulose (CMC)",101 % of control
same,T/C,"dose: 83.0 mg/kg/injection, schedule: Q01DX Z (ip), vehicle: carboxymethylcellulose (CMC)",95 % of control
same,T/C,"dose: 125.0 mg/kg/injection, schedule: Q01DX Z (ip), vehicle: carboxymethylcellulose (CMC)",98 % of control
same,T/C,"dose: 187.5 mg/kg/injection, schedule: Q01DX Z (ip), vehicle: carboxymethylcellulose (CMC)",102 % of control
O=C(O)c1ccccc1Cc1cccs1,T/C,"dose: 100.0 mg/kg/injection, schedule: Q01DX001 (ip), vehicle: saline with Tween-80",98 % of control
same,T/C,"dose: 200.0 mg/kg/injection, schedule: Q01DX001 (ip), vehicle: saline with Tween-80",95 % of control
same,T/C,"dose: 400.0 mg/kg/injection, schedule: Q01DX001 (ip), vehicle: saline with Tween-80",92 % of control
COC(=O)c1c(Cl)c(Cl)cc(Cl)c1Cl,T/C,"dose: 100.0 mg/kg/injection, schedule: Q01DX009 (ip), vehicle: saline sonified",106 % of control
same,T/C,[10],93 % of control
same,T/C,"dose: 200.0 mg/kg/injection, schedule: Q01DX009 (ip), vehicle: saline sonified",113 % of control
same,T/C,[11],98 % of control
same,T/C,"dose: 400.0 mg/kg/injection, schedule: Q01DX009 (ip), vehicle: saline sonified",107 % of control
same,T/C,[12],106 % of control
COC1OC2COc3ccccc3OC2C2NC12 (configuration not stated),T/C,"dose: 100.0 mg/kg/injection, schedule: Q04DX002 (ip), vehicle: Klucel (hydroxypropylcellulose) (HPC)",98 % of control
same,T/C,"dose: 200.0 mg/kg/injection, schedule: Q04DX002 (ip), vehicle: Klucel (hydroxypropylcellulose) (HPC)",105 % of control
same,T/C,"dose: 400.0 mg/kg/injection, schedule: Q04DX002 (ip), vehicle: Klucel (hydroxypropylcellulose) (HPC)",102 % of control
